Patent US20220112187A1, “PYRAZOLOPYRIDINE AMINE COMPOUNDS FOR THE TREATMENT OF AUTOIMMUNE DISEASE” (Hoffmann-La Roche Inc., priority 2018, published 2022)

Target: T1, human TLR9 (Homo sapiens, UniProt Q9NR96)
T1 sequence (Q9NR96 26-1032): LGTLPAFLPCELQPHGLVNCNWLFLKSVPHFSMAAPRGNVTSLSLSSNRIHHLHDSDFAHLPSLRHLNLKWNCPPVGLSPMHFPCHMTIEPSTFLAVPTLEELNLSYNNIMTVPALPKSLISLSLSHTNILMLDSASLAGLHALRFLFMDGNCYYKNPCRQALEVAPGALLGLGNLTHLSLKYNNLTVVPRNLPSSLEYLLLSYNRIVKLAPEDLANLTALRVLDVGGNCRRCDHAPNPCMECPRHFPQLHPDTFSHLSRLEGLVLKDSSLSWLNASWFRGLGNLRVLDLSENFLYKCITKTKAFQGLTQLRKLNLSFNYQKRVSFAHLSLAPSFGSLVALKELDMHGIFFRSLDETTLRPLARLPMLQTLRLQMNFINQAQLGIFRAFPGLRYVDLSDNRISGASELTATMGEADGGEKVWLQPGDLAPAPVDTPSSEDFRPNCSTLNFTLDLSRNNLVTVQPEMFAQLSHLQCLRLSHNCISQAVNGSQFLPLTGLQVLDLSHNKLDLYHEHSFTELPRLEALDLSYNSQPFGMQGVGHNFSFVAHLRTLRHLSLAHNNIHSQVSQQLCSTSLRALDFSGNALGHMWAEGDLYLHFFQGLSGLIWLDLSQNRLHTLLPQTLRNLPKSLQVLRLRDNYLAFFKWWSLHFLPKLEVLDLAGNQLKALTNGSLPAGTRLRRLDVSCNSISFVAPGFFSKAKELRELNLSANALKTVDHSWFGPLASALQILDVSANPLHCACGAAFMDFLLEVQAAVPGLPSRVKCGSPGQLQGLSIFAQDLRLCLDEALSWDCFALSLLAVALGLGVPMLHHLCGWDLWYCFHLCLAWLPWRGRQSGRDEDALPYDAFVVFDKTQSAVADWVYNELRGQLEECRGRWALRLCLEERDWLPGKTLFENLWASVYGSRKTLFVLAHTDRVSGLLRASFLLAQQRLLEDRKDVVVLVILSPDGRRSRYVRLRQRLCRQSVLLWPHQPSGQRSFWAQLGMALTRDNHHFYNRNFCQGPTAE
Test: HEK293-Blue-hTLR-9 cells assay (SEAP reporter, ODN2006 stimulation)
Format: cell-based
Details: HEK293-Blue-hTLR9 cells, ODN2006 ligand, 20 hrs incubation
Text: A stable HEK293-Blue-hTLR-9 cell line was purchased from InvivoGen (Cat. #: hkb-htlr9, San Diego, Calif., USA). These cells were originally designed for studying the stimulation of human TLR9 by monitoring the activation of NF-κB. A SEAP (secreted embryonic alkaline phosphatase) reporter gene was placed under the control of the IFN-β minimal promoter fused to five NF-κB and AP-1-binding sites. The SEAP was induced by activating NF-κB and AP-1 via stimulating HEK-Blue hTLR9 cells with TLR9 ligands. Therefore the reporter expression was declined by TLR9 antagonist under the stimulation of a ligand, such as ODN2006 (Cat. #: tlr1-2006-1, Invivogen, San Diego, Calif., USA), for incubation of 20 hrs. The cell culture supernatant SEAP reporter activity was determined using QUANTI-Blue™ kit (Cat. #: rep-qb1, Invivogen, San Diego, Calif., USA) at a wavelength of 640 nm, a detection medium that turns purple or blue in the presence of alkaline phosphatase.
HEK293-Blue-hTLR9 cells were incubated at a density of 250,000˜450,000 cells/mL in a volume of 170 μL in a 96-well plate in Dulbecco's Modified Eagle's medium (DMEM) containing 4.5 g/L glucose, 50 U/mL penicillin, […], […], 2 mM L-glutamine, 10% (v/v) heat-inactivated fetal bovine serum with addition of 20 μL test compound in a serial dilution in the presence of final DMSO at 1% and 10 μL of 20 uM ODN2006 in above DMEM, perform incubation under 37° C. in a CO2 incubator for 20 hrs. Then 20 μL of the supernatant from each well was incubated with 180 μL Quanti-blue substrate solution at 37° C. for 2 hrs and the absorbance was read at 620-655 nm using a spectrophotorneter. The signalling pathway that TLR9 activation leads to downstream NF-κB activation has been widely accepted, and therefore similar reporter assay was modified for evaluating TLR9 antagonist.

SMILES	IC50 [nM]
C[C@@H]1CN(c2ccc(C#N)n3nccc23)C[C@H](CN2CC3(CCNCC3)C2)O1 [Example 24, 4-[(2S,6R)-2-(2,7-diazaspiro[3.5]nonan-2-ylmethyl)-6-methyl-morpholin-4-yl]pyrazolo[1,5-a]pyridine-7-carbonitrile]	100
C[C@@H]1CN(c2ccc(C#N)n3nccc23)C[C@H](CN2CCN[C@H](c3ccccc3)C2)O1 [Example 38, 4-[(2R,6S)-2-methyl-6-[[(3R)-3-phenylpiperazin-1-yl]methyl]morpholin-4-yl]pyrazolo[1,5-a]pyridine-7-carbonitrile]	1900
C[C@@H]1CN(c2ccc(C#N)n3nccc23)C[C@H](CN2CCC(C)(N)CC2)O1 [Example 29, 4-[(2S,6R)-2-[(4-amino-4-methyl-1-piperidyl)methyl]-6-methyl-morpholin-4-yl]pyrazolo[1,5-a]pyridine-7-carbonitrile]	220
C[C@@H]1CN(c2ccc(C#N)n3nccc23)C[C@H](CN2CCC3NCC3C2)O1 (stereo partly drawn) [Example 70, 4-[(2S,6R)-2-(3,7-diazabicyclo[4.2.0]octan-3-ylmethyl)-6-methyl-morpholin-4-yl]pyrazolo[1,5-a]pyridine-7-carbonitrile]	200
C[C@@H]1CN(c2ccc(C#N)n3nccc23)C[C@H](CN2CC(N)C(F)(F)C2)O1 (stereo partly drawn) [Example 35, 4-[(2S,6R)-2-[(4-amino-3,3-difluoro-pyrrolidin-1-yl)methyl]-6-methyl-morpholin-4-yl]pyrazolo[1,5-a]pyridine-7-carbonitrile]	> 100000
C[C@@H]1CN(c2ccc(C#N)n3nccc23)C[C@H](CN2CCN(C3CCNCC3)CC2Cc2ccccc2)O1 (stereo partly drawn) [Example 77, 4-[(2S,6R)-2-[[2-benzyl-4-(4-piperidyl)piperazin-1-yl]methyl]-6-methyl-morpholin-4-yl]pyrazolo[1,5-a]pyridine-7-carbonitrile]	150
C[C@@H]1CN(c2ccc(C#N)n3nccc23)C[C@H](CN2C3COCC2CC(N)C3)O1 (stereo partly drawn) [Example 58, 4-[(2S,6R)-2-[(7-amino-3-oxa-9-azabicyclo[3.3.1]nonan-9-yl)methyl]-6-methyl-morpholin-4-yl]pyrazolo[1,5-a]pyridine-7-carbonitrile]	390
C[C@@H]1CN(c2ccc(C#N)n3nccc23)C[C@H](CN2CC3CCNCC32)O1 (stereo partly drawn) [Example 56, 4-[(2S,6R)-2-(3,8-diazabicyclo[4.2.0]octan-8-ylmethyl)-6-methyl-morpholin-4-yl]pyrazolo[1,5-a]pyridine-7-carbonitrile]	850
C[C@@H]1CN(c2ccc(C#N)n3nccc23)C[C@H](CN2CCC3(CCNC3)C2)O1 (stereo partly drawn) [Example 6, 4-[(2S,6R)-2-(2,7-diazaspiro[4.4]nonan-2-ylmethyl)-6-methyl-morpholin-4-yl]pyrazolo[1,5-a]pyridine-7-carbonitrile]	31
CC1CNCCN1C[C@H]1CN(c2ccc(C#N)n3nccc23)C[C@@H](C)O1 (single isomer, unassigned) [Example 50B]	24000
C[C@@H]1CN(c2ccc(C#N)n3nccc23)C[C@H](CN2CCC3NCCC3C2)O1 (stereo partly drawn) [Example 41, 4-[(2S,6R)-2-(1,2,3,3a,4,6,7,7a-octahydropyrrolo[3,2-c]pyridin-5-ylmethyl)-6-methyl-morpholin-4-yl]pyrazolo[1,5-a]pyridine-7-carbonitrile]	140
C[C@@H]1CN(c2ccc(C#N)n3nccc23)C[C@H](CN2CCNCC2)O1 [Example 5, 4-[(2R,6S)-2-methyl-6-(piperazin-1-ylmethyl)morpholin-4-yl]pyrazolo[1,5-a]pyridine-7-carbonitrile]	890
C[C@@H]1CN(c2ccc(C#N)n3nccc23)C[C@H](CN2CCOC3(CCNCC3)C2)O1 [Example 71, 4-[(2R,6S)-2-methyl-6-(1-oxa-4,9-diazaspiro[5.5]undecan-4-ylmethyl)morpholin-4-yl]pyrazolo[1,5-a]pyridine-7-carbonitrile]	510
C[C@@H]1CN(c2ccc(C#N)n3nccc23)C[C@H](CN2CCC3(CCNCC3)CC2)O1 [Example 3, 4-[(2S,6R)-2-(3,9-diazaspiro[5.5]undecan-3-ylmethyl)-6-methyl-morpholin-4-yl]pyrazolo[1,5-a]pyridine-7-carbonitrile]	90
C[C@@H]1CN(c2ccc(C#N)n3nccc23)C[C@H](CN2CCC3(CN(C)CCO3)C2)O1 (stereo partly drawn) [Example 76, 4-[(2R,6S)-2-methyl-6-[(9-methyl-6-oxa-2,9-diazaspiro[4.5]decan-2-yl)methyl]morpholin-4-yl]pyrazolo[1,5-a]pyridine-7-carbonitrile]	3500
C[C@@H]1CN(c2ccc(C#N)n3nccc23)C[C@H](CN2CCNC3(CC3)C2)O1 [Example 40, 4-[(2S,6R)-2-(4,7-diazaspiro[2.5]octan-7-ylmethyl)-6-methyl-morpholin-4-yl]pyrazolo[1,5-a]pyridine-7-carbonitrile]	13000
C[C@@H]1CN(c2ccc(C#N)n3nccc23)C[C@H](CN2CCC3(CCCNC3)CC2)O1 [Example 27, 4-[(2S,6R)-2-(2,9-diazaspiro[5.5]undecan-9-ylmethyl)-6-methyl-morpholin-4-yl]pyrazolo[1,5-a]pyridine-7-carbonitrile]	65
C[C@@H]1CN(c2ccc(C#N)n3nccc23)C[C@H](CN2CCCC3(CCNC3)C2)O1 (stereo partly drawn) [Example 44, 4-[(2S,6R)-2-(2,7-diazaspiro[4.5]decan-7-ylmethyl)-6-methyl-morpholin-4-yl]pyrazolo[1,5-a]pyridine-7-carbonitrile]	110
C[C@@H]1CN(c2ccc(C#N)n3nccc23)C[C@H](CN2CCC(N3CCCCC3)CC2)O1 [Example 16, 4-[(2R,6S)-2-methyl-6-[[4-(1-piperidyl)-1-piperidyl]methyl]morpholin-4-yl]pyrazolo[1,5-a]pyridine-7-carbonitrile]	520
C[C@@H]1CN(c2ccc(C#N)n3nccc23)C[C@H](CN2CC3CCC2CN3)O1 (stereo partly drawn) [Example 30, 4-[(2S,6R)-2-(2,5-diazabicyclo[2.2.2]octan-2-ylmethyl)-6-methyl-morpholin-4-yl]pyrazolo[1,5-a]pyridine-7-carbonitrile]	3200
C[C@@H]1CN(c2ccc(C#N)n3nccc23)C[C@H](CN2CCC3(CCCCN3)CC2)O1 [Example 47, 4-[(2S,6R)-2-(1,9-diazaspiro[5.5]undecan-9-ylmethyl)-6-methyl-morpholin-4-yl]pyrazolo[1,5-a]pyridine-7-carbonitrile]	190
C[C@@H]1CN(c2ccc(C#N)n3nccc23)C[C@H](CN2C3CNCC2COC3)O1 [Example 57, 4-[(2R,6S)-2-methyl-6-(3-oxa-7,9-diazabicyclo[3.3.1]nonan-9-ylmethyl)morpholin-4-yl]pyrazolo[1,5-a]pyridine-7-carbonitrile]	10000
C[C@@H]1CN(c2ccc(C#N)n3nccc23)C[C@H](CN2CC3CCC(C2)C3N)O1 (stereo partly drawn) [Example 36, 4-[(2S,6R)-2-[(8-amino-3-azabicyclo[3.2.1]octan-3-yl)methyl]-6-methyl-morpholin-4-yl]pyrazolo[1,5-a]pyridine-7-carbonitrile]	520
C[C@@H]1CN(c2ccc(C#N)n3nccc23)C[C@H](CN2CC3(CCCNC3)C2)O1 [Example 10, 4-[(2S,6R)-2-(2,8-diazaspiro[3.5]nonan-2-ylmethyl)-6-methyl-morpholin-4-yl]pyrazolo[1,5-a]pyridine-7-carbonitrile]	80
